From US5759996A, “Peptides useful for altering αv β3 -mediated binding” (priority 1995, dated 1998)
Where a SMILES comes first, the peptide text is derived from it. Bridges are numbered along the chain shown (N, C = ends). [ ]: non-standard residue; d: D form. Tic = O=C(O)[C@@H]1Cc2ccccc2CN1; Pen = CC(C)(S)[C@H](N)C(=O)O; Mpa = O=C(O)CCS

Assays:
[1] = parathyroid hormone-induced hypercalcemia in mice; format: in vivo; details: parathyroidectomized mice, 4 hr infusion, various doses
Description: Parathyroid hormone (PTH) activates osteoclasts, which are involved in bone resorption. Associated with the increased osteoclast activity is an increase in serum calcium. The PTH-induced hypercalcemia assay measures the level of serum calcium, which is an indication of bone resorption in a subject (Fischer et al., Endocrinology 132:1411-1413 (1993), which is incorporated herein by reference).
Swiss-Webster mice, which had been parathyroidectomized two weeks prior to beginning the assay, were obtained from Taconic Lab Animals and Services (Germantown N.Y.). Femoral vein catheters (PE-50 fused with PE10 polyethylene tubing; Becton Dickinson; Parsippany, N.J.) were installed in the mice, flushed and locked with heparinized saline (1:10), sutured to adjacent muscle and internalized within the inguinal space of the incision before closing the incision with wound clips. […]
The experiment was initiated by feeding the mice a calcium-deficient diet overnight, then injecting the mice the following morning with a bolus of 0.2 mg PTH/kg (hPTH 1-34; Bachem; Torrance Calif.), intravenously. […] Various doses of a peptide or vehicle were infused into an animal for 4 hr, then ionized serum calcium again was measured. […] Serum calcium measurements were expressed as the difference between the value 30 min before the PTH pulse and 4 hr after peptide infusion was started. […]

[2] = biological target: αv β3 integrin receptor (Homo sapiens, UniProt P05106+P06756); assay: series of in vitro assays of Example II (potency and selectivity summary)
[3] = biological target: T1, purified human α5 β1 (FnR) (Homo sapiens, UniProt P05556+P08648); assay: α5 β1 ELISA (competitive); format: binding
T1 construct: Fibronectin receptor (FnR) was purified from 100 mM octyl-glucopyranoside-extracted human placenta; from tissue; host or cells: human placenta
Description: Peptide binding to purified human α5 β1 (FnR) also was determined using a competitive ELISA. In these assays, Fn was immobilized to the wells and the binding of solubilized FnR in the presence of various concentrations of a peptide analogue was determined using a mouse monoclonal antibody to human β1 (clone P4C10; Gibco) and specific binding was visualized using a second antibody.
Microtiter wells were coated at RT by adding 100 μl of 2 μg/ml human Fn in TBS and incubating the plates overnight at 4° C. Following incubation, the plates were washed 3× with TBS/"TWEEN 20" (polyoxyethylenesorbitan monolaurate). RGD peptides were diluted in TBS containing 20 mM OG and 2 mM MnCl2 and 50 μl was added to wells at 10-fold serial dilutions. FnR was diluted in the same buffer and 50 μl was added to each well.
The plates were incubated for 3 hr at RT and washed with 300 μl TBS/"TWEEN 20" (polyoxyethylenesorbitan monolaurate). Bound receptor was incubated with 100 μl of the monoclonal anti-β1 antibody for 2 hr, then washed 3× with TBS/"TWEEN 20" (polyoxyethylenesorbitan monolaurate). […] The amount of bound second antibody was determined as described above.
The IC50 values for various RGD peptides were calculated by determining the concentration of a peptide that inhibited binding of Vn to αv β5 or αv β3 or of Fn to α5 β1, by 50%. […]

[4] = half-life of peptide in serum; details: in vivo
Description: Increased stability of a disulfide bonded peptide of the invention also can be conferred by incorporating a hydrophobic amino acid residue such as phenylalanine at position X1 or X8 or both X1 and X8 in an RGDNTic (SEQ ID NO: 31) or RGDDV (SEQ ID NO: 1) pharmacophore as disclosed herein. The presence of such a residue can stabilize the disulfide bond against enzymatic degradation (see Bauer et al., Life Sciences 31:1133-1140 (1982)). […] In addition, the half-life of a peptide in a subject can be determined, for example, by high performance liquid chromatography (HPLC) of serum samples collected from the subject at various times following administration of the peptide. One skilled in the art would know how to select appropriate elution buffers for HPLC based on the physico-chemical properties of a particular peptide.

[5] = cited from earlier work
[6] = system: osteoclasts; details: cited from earlier work
[7] = rabbit, in vivo; cited from earlier work

Compound: CC(C)[C@@H]1NC(=O)[C@H](CC(=O)O)NC(=O)[C@H](CC(=O)O)NC(=O)CNC(=O)[C@H](CCCNC(=N)N)NC(=O)CCSSC[C@@H](C(N)=O)NC1=O [compound 191] ([Mpa]RGDDVC-NH2; disulfide 1-7)
- PTH-induced rise in serum ionized calcium [1]: decreased the PTH-induced rise in serum ionized calcium in a dose responsive manner

Compound: CC(=O)N[C@H]1CSSC(C)(C)[C@@H](C(N)=O)NC(=O)[C@@H]2CCCN2C(=O)[C@H](CC(N)=O)NC(=O)[C@H](CC(=O)O)NC(=O)CNC(=O)[C@H](CCCNC(=N)N)NC1=O [compound 228] (Ac-CRGDNP[Pen]-NH2; disulfide 1-7)
- receptor selectivity (summary) ([2]; summary of assays): particularly receptor selective

Compound: C[C@@H]1NC(=O)[C@H](CCCNC(=N)N)NC(=O)CNC(=O)CC[C@@H](C(N)=O)NC(=O)[C@@H]2CCCN2C(=O)[C@H](CC(N)=O)NC(=O)[C@H](CC(=O)O)NC(=O)CNC(=O)[C@H](CCCNC(=N)N)NC1=O [compound 390] (GRARGDNPE-NH2; lactam N-9)
- receptor selectivity α5 β1 versus αv β5 [3]: more selective toward α5 β1 than toward αv β5

Compound: CC(=O)N[C@H]1CSSC[C@@H](C(N)=O)NC(=O)[C@@H]2Cc3ccccc3CN2C(=O)[C@H](CO)NC(=O)[C@H](CC(=O)O)NC(=O)CNC(=O)[C@H](CCCNC(=N)N)NC1=O [compound 812, Ac-CRGDS(Tic)C-NH2] (Ac-CRGDS[Tic]C-NH2; disulfide 1-7)
- activity (FIG. 2 assays) ([2]; minimal-element peptides): demonstrate activity
- potency (active at relatively low concentration) ([2]; summary of assays): particularly potent

Compound: CC(=O)N[C@@H]1C(=O)N[C@@H](Cc2ccccc2)C(=O)N[C@@H](C)C(=O)N[C@@H](CCCNC(=N)N)C(=O)NCC(=O)N[C@@H](CC(=O)O)C(=O)N[C@@H](CC(N)=O)C(=O)N2CCC[C@H]2C(=O)N[C@H](C(N)=O)CSSC1(C)C [peptide 214] (Ac-[Pen]FARGDNPC-NH2; disulfide 1-9)
- potency (active at relatively low concentration) ([2]; summary of assays): particularly potent

Compound: CC(=O)N[C@@H](Cc1ccccc1)C(=O)N[C@H]1CSSC[C@@H](C(N)=O)NC(=O)[C@H](Cc2ccccc2)NC(=O)[C@H]([C@@H](C)O)NC(=O)[C@H](CC(=O)O)NC(=O)CNC(=O)[C@H](CCCNC(=N)N)NC1=O [peptide 220] (Ac-FCRGDTFC-NH2; disulfide 2-8)
- half-life in serum [4]: relatively long half-life in serum

Compound: Echistatin
- bone resorption in vivo [5]: inhibits bone resorption
- binding to osteoclasts [6]: binds to osteoclasts in a nonselective manner
- bone resorption in vitro ([6]; in vitro): inhibits bone resorption in vitro

Compound: G(Pen)GRGDSPCA
- neointimal hyperplasia [7]: inhibit neointimal hyperplasia
